The nature of the data set: Dissolution test USP 31 NF 26 section 711, apparatus 1 baskets at 100 rpm. The data set is classed as physicochemical. The method, then: The release enhancing agent, CaCl2, was added to the capsule blend of the first sample while a second formulation was prepared as a control without the use of the release enhancing agent. Six capsules from each formulation were then tested for dissolution.
The test used followed USP 31 NF 26 section 711 using apparatus 1 baskets at 100 rpm (no enzymes). The media selected was simulated gastric (0.1N HCl) at a volume of 900 ml. One capsule was added to each dissolution vessel. At the 60 minute time point the baskets were removed without touching the contents and subsequently placed in dissolution vessels containing 900 ml of simulated intestinal fluid (pH of 6.8). Aliquots were drawn at 15, 30, 45, and 120 minutes. An equivalent amount of media was replaced in the dissolution vessel to account for the volume of the sample removed. The aliquots were filtered and subsequently analyzed using HPLC equipped with a UV detector.
The process that was used to create the resinate, filling the capsules and carrying out the dissolution test in this example was the same as described in Example 1 except that 60 mg of CaCl2 was used instead of 40 mg as in Example 1.

These results are taken from patent US20100273822A1, “Immediate release compositions and methods for delivering drug formulations using strong acid ion exchange resins” (priority 2009, published 2010).

In the case of `[Ca+2].[Cl-].[Cl-]` [CaCl2], the “effect of adding the release enhancing agent on release rate of dextromethorphan vs control formulation” value reads like this: (Example 1, 40 mg CaCl2 in capsule with dextromethorphan IRP69 resinate) “increased the release rate of dextromethorphan”; (Example 2, 60 mg CaCl2 in capsule with dextromethorphan IRP69 resinate) “increased the release rate of dextromethorphan”.
